From patent publication US11999727B2 (Tango Therapeutics, Inc., priority 2020, dated 2024) come the findings set out here.

Where two headings read alike, the source gives them in different places.

For assay [1], the system named is HAP1 MTAP-intact cell line. In words: SDMA in-cell western assay, HAP1 MTAP-intact. The conditions noted are these: Homo sapiens. It counts as cell-based. The method, boiled down:
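Compounds were tested in HAP1 cells differing only in MTAP status (endogenous expression versus null). Cellular SDMA levels were then measured by in-cell western, giving an IC50 in each background.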

Assay [2] deals with T1, PRMT5 (Homo sapiens, UniProt O14744).
T1 construct: purchased Viva (custom protein)
In words: PRMT5 biochemical IC50 assay with no cofactor. The following applies: PRMT5, no cofactor. From the text:
Table 1 indicates IC50 values (μM) against PRMT5 for exemplary compounds in the presence of SAM as cofactor, with no cofactor, and with MTA as cofactor, respectively (columns 4-6). […] Ki values can be calculated from the IC50 values as described in the Examples section. As detailed in the Examples section, for the assay performed in the presence of SAM, IC50=Ki×1.5 (Ki=IC50/1.5).

For assay [3], the system named is HAP1 MTAP-deleted cell line. Nature of the assay: Viability assay, MTAP-deleted cell line. It is filed as cell-based. The conditions noted are these: Homo sapiens. The source says: Table 1 additionally indicates IC50 values in a viability assay for the MTAP-deleted cell line (column 10), indicating the effect of treatment with compound on cell survival.
Assay [4] concerns HAP1 MTAP-deleted cell line. In words: SDMA in-cell western assay, HAP1 MTAP-deleted. It counts as cell-based. The following applies: for IC50: Homo sapiens; for MTAP intact/deleted ratio: SDMA in-cell western. The source says: Table 1 also indicates IC50 values in an MTAP-isogenic cell line pair for exemplary compounds in an SDMA in-cell western assay (columns 7-8). HAP1 MTAP-intact is a cell line in which endogenous levels of MTAP are expressed, and HAP1 MTAP-deleted is an MTAP-null cell line.

The target of assay [5] is T1, PRMT5. Nature of the assay: PRMT5 biochemical IC50 assay with SAM as cofactor.
Assay [6] addresses T1, PRMT5. In words: PRMT5 biochemical IC50 assay with MTA as cofactor.
Setting [7] is: HAP1, SDMA in-cell western, HAP1 MTAP-intact, read-out: MTAP HAP1 intact IC50.
The mark [8] stands for this setting: HAP1, viability assay, MTAP-deleted cell line, read-out: HAP1 MTAP deleted viability.
Where [9] appears, read: HAP1, SDMA in-cell western, HAP1 MTAP-deleted, read-out: HAP 1 MTAP deleted IC50.
Where [10] appears, read: IC50 ratio HAP1 MTAP-intact / HAP1 MTAP-deleted.
Setting [11] is: PRMT5, SAM as cofactor, read-out: SAM IC50.
[12] abbreviates: PRMT5, MTA as cofactor, read-out: MTA IC50.
[13] abbreviates: HAP1, viability, HAP1 MTAP-deleted cell line, read-out: HAP1 MTAP deleted viability.
Setting [14] is: HAP1, SDMA in-cell western, HAP1 MTAP-deleted, read-out: HAP1 MTAP deleted IC50.
[15] abbreviates: IC50 ratio HAP1 MTAP-intact vs HAP1 MTAP-deleted.
The mark [16] stands for this setting: HAP1, read-out: MTAP HAP1 intact IC50.
The mark [17] stands for this setting: HAP1, read-out: HAP1 MTAP deleted viability.
[18] abbreviates: HAP1, read-out: HAP1 MTAP deleted IC50.

T1 sequence (O14744 whole entry): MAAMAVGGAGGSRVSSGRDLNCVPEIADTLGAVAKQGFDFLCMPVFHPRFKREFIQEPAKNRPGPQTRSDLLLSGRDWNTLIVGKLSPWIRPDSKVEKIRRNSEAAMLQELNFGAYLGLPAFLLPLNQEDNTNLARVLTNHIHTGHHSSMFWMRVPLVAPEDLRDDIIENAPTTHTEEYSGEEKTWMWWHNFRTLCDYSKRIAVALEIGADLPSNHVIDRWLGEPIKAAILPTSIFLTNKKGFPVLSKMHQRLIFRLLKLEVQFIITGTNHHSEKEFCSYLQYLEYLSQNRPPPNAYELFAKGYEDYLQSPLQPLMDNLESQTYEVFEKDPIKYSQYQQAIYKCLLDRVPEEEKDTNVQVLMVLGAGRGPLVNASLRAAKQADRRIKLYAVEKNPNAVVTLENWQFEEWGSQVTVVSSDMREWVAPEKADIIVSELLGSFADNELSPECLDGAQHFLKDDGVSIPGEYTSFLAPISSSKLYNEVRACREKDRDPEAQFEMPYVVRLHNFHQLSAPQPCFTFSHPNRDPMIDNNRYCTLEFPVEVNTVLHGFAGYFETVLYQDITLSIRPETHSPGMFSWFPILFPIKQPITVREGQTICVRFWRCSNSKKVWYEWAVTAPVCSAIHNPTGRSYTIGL
T1 sequence (Q9BQA1 whole entry partner): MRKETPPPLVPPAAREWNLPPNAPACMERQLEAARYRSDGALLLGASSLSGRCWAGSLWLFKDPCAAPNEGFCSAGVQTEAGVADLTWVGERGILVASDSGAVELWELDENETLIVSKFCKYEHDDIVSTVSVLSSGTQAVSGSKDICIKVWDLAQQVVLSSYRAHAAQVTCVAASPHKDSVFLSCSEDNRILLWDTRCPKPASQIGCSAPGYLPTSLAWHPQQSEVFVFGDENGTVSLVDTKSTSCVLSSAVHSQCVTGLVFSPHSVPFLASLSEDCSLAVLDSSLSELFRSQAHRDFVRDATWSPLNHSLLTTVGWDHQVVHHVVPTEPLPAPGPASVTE

Turning to `Cc1cc(NC(=O)C(=O)N2C[C@H](C)CC[C@@H]2C2CCNC(=O)C2)cnc1N` (mixture of isomers) [Compound 159, N-(6-amino-5-methyl-3-pyridyl)-2-[(2S,5S)-5-methyl-2-(2-oxo-4-piperidyl)-1-piperidyl]-2-oxo-acetamide], the IC50 in assay [1] (setting [7]) is above 1000 nM; at PRMT5 [2] (read-out: No Cofactor/ rel IC50) it was 50 to 500 nM; in assay [3] (setting [8]) it was above 10000 nM; in assay [4] (setting [9]), above 1000 nM; at PRMT5 [5] (setting [11]), 50 to 500 nM. Moreover, the “MTAP intact/deleted ratio” value in assay [4] (setting [10]) is “B (an IC50 ratio greater than or equal to 3 fold but lower than 10 fold)”.

`CCc1cc(NC(=O)C(=O)N2C[C@@H](C)CC[C@@H]2c2ccc(N3CCN(C)CC3)c(Cl)c2)cnc1N` (racemic) [Compound 1265, N-(6-Amino-5-ethyl-3-pyridyl)-2-oxo-2-[rac-(2R,5S)-2-[3-chloro-4-(4-methylpiperazin-1-yl)phenyl]-5-methyl-1-piperidyl]acetamide]: the IC50 in assay [1] (setting [7]) was 100 to 1000 nM; on PRMT5 [6] (setting [12]) it was 50 to 500 nM; in assay [3] (setting [13]) it was below 1000 nM; in assay [4] (setting [9]) it was below 100 nM; at PRMT5 [5] (setting [11]), 50 to 500 nM. Further, in assay [4] (setting [10]), the “MTAP intact/deleted ratio” value is reported as “A (an IC50 ratio greater than or equal to 10 fold)”.

Consider `C[C@@H]1CC[C@@H](c2ccc3c(c2)OCCN3)N(C(=O)C(=O)Nc2cncc(C(N)=O)c2)C1` (single isomer, unassigned) [Compound 605], for which the IC50 in assay [1] (setting [7]) was above 1000 nM; at PRMT5 [2] (read-out: No Cofactor/rel IC50) it was above 500 nM; in assay [3] (HAP1, viability IC50, MTAP-deleted cell line, read-out: HAP1 MTAP deleted viability) it was above 10000 nM; in assay [4] (setting [9]) it was above 1000 nM; on PRMT5 [5] (setting [11]) it was above 500 nM. Moreover, the MTAP intact/deleted ratio entry in assay [4] (setting [10]) was “B (an IC50 ratio greater than or equal to 3 fold but lower than 10 fold)”.

On to `CO[C@H]1C[C@H](c2ccc3scnc3c2)N(C(=O)C(=O)Nc2cncc(C(N)=O)c2)C[C@H]1C` (single isomer, unassigned) [Compound 1221], for which the IC50 in assay [1] (setting [7]) is above 1000 nM; on PRMT5 [6] (setting [12]), 50 to 500 nM; in assay [3] (setting [8]) it was 1000 to 10000 nM; in assay [4] (setting [14]), 100 to 1000 nM; on PRMT5 [5] (setting [11]), above 500 nM. The MTAP intact/deleted ratio result in assay [4] (setting [15]) is “A (an IC50 ratio greater than or equal to 10 fold)”.

Consider `CCc1cc(NC(=O)C(=O)N2C[C@@H](C)CC[C@@H]2c2ccc3sc(C4(O)CCN(C)CC4)nc3c2)cnc1N` [Compound 1107], for which the IC50 in assay [1] (setting [16]) is below 100 nM; against PRMT5 [6] (MTA IC50, PRMT5, MTA as cofactor), below 50 nM; in assay [3] (setting [17]), below 1000 nM; in assay [4] (setting [18]), below 100 nM; at PRMT5 [5] (SAM IC50, PRMT5, SAM as cofactor), below 50 nM. Besides, the MTAP intact/deleted ratio result in assay [4] (setting [15]) is reported as “B (an IC50 ratio greater than or equal to 3 fold but lower than 10 fold)”.

Consider `[2H]c1nc2cc([C@H]3CC[C@H](C)CN3C(=O)C(=O)Nc3cnc(N)c(C)c3)ccc2s1` [Compound 1177], for which the IC50 in assay [1] (setting [16]) was 100 to 1000 nM; in assay [3] (setting [17]), below 1000 nM; in assay [4] (setting [18]), below 100 nM.

As to `CCc1cc(NC(=O)C(=O)N2C[C@@H](C)CC[C@@H]2c2cccc(Oc3cccnc3)c2)cnc1N` [Compound 1180], the IC50 in assay [1] (setting [7]) is 100 to 1000 nM; at PRMT5 [6] (setting [12]), below 50 nM; in assay [3] (setting [8]) it was below 1000 nM; in assay [4] (setting [14]), below 100 nM; at PRMT5 [5] (setting [11]), 50 to 500 nM. In assay [4] (setting [15]), the MTAP intact/deleted ratio entry is given as “A (an IC50 ratio greater than or equal to 10 fold)”.

On to `COc1ncc(NC(=O)C(=O)N2C[C@@H](C)CC[C@@H]2c2cccc(N3CCN(C)CC3)c2)cc1C(N)=O` [Compound 1277, 2-methoxy-5-(2-((2R,5S)-5-methyl-2-(3-(4-methylpiperazin-1-yl)phenyl)piperidin-1-yl)-2-oxoacetamido)nicotinamide], for which the IC50 is 100 to 1000 nM in assay [1] (setting [7]); below 50 nM at PRMT5 [6] (setting [12]); below 1000 nM in assay [3] (setting [13]); below 100 nM in assay [4] (setting [9]); 50 to 500 nM at PRMT5 [5] (setting [11]). Besides, the “MTAP intact/deleted ratio” value in assay [4] (setting [10]) was “A (an IC50 ratio greater than or equal to 10 fold)”.

As to `CCc1cc(NC(=O)C(=O)N2C[C@@H](C)CC[C@@H]2c2cccc(Oc3cc(C)nc(C)c3)c2)cnc1N` [Compound 1297, N-(6-amino-5-ethylpyridin-3-yl)-2-((2R,5S)-2-(3-((2,6-dimethylpyridin-4-yl)oxy)phenyl)-5-methylpiperidin-1-yl)-2-oxoacetamide], the IC50 in assay [1] (setting [7]) is 100 to 1000 nM; at PRMT5 [6] (setting [12]) it was below 50 nM; in assay [3] (setting [13]), below 1000 nM; in assay [4] (setting [9]), below 100 nM; on PRMT5 [5] (setting [11]), 50 to 500 nM.

On to `C[C@H]1CC[C@H](c2ccc3scnc3c2)N(C(=O)C(=O)Nc2cnc(N)c(C3CC3)c2)C1` [Compound 1319, N-(6-amino-5-cyclopropyl-3-pyridyl)-2-[(2R,5S)-2-(1,3-benzothiazol-5-yl)-5-methyl-1-piperidyl]-2-oxo-acetamide], for which the IC50 is 100 to 1000 nM in assay [1] (setting [16]), below 1000 nM in assay [3] (setting [17]) and below 100 nM in assay [4] (setting [18]).

For the compound `Cc1cc(NC(=O)C(=O)N2C[C@@H](C)CC[C@@H]2c2ccc3sc([C@H]4CCN(C)C(=O)C4)nc3c2)cnc1N` [Compound 1333, N-(6-amino-5-methylpyridin-3-yl)-2-((2R,5S)-5-methyl-2-(2-(1-methyl-2-oxopiperidin-4-yl)benzo[d]thiazol-5-yl)piperidin-1-yl)-2-oxoacetamide], the IC50 is below 100 nM in assay [1] (setting [16]), below 1000 nM in assay [3] (setting [17]) and below 100 nM in assay [4] (setting [18]).

Turning to `C[C@H]1CC[C@H](c2ccc3scnc3c2)N(C(=O)C(=O)Nc2cnc(N)c(C3COC3)c2)C1` [Compound 1356, N-[6-amino-5-(oxetan-3-yl)-3-pyridyl]-2-[(2R,5S)-2-(1,3-benzothiazol-5-yl)-5-methyl-1-piperidyl]-2-oxo-acetamide], the values for the IC50 in assay [1] (setting [16]), in assay [3] (setting [17]) and in assay [4] (setting [18]) were 100 to 1000 nM, below 1000 nM and below 100 nM, respectively.

For the compound `CCc1cc(NC(=O)C(=O)N2C[C@@H](C)CC[C@@H]2c2cccc(C(F)(F)CCN(C)C)c2)cnc1N` [Compound 1381, N-(6-amino-5-ethylpyridin-3-yl)-2-((2R,5S)-2-(3-(3-(dimethylamino)-1,1-difluoropropyl)phenyl)-5-methylpiperidin-1-yl)-2-oxoacetamide], the IC50 is 100 to 1000 nM in assay [1] (setting [7]); below 50 nM on PRMT5 [6] (setting [12]); below 1000 nM in assay [3] (setting [13]); below 100 nM in assay [4] (setting [9]); below 50 nM at PRMT5 [5] (setting [11]). Besides, in assay [4] (setting [10]), the “MTAP intact/deleted ratio” value was “A (an IC50 ratio greater than or equal to 10 fold)”.

In the case of `CCc1cc(NC(=O)C(=O)N2C[C@@H](C)CC[C@@H]2c2cccc(OCCCN(C)C)c2)cnc1N` [Compound 1384, N-(6-amino-5-ethylpyridin-3-yl)-2-((2R,5S)-2-(3-(3-(dimethylamino)propoxy)phenyl)-5-methylpiperidin-1-yl)-2-oxoacetamide], the IC50 in assay [1] (setting [7]) is below 100 nM; at PRMT5 [6] (setting [12]), below 50 nM; in assay [3] (setting [13]), below 1000 nM; in assay [4] (setting [9]), below 100 nM; at PRMT5 [5] (setting [11]), 50 to 500 nM. Further, in assay [4] (setting [10]), the “MTAP intact/deleted ratio” value is given as “A (an IC50 ratio greater than or equal to 10 fold)”.

Consider `CCc1cc(NC(=O)C(=O)N2C[C@@H](C)CC[C@@H]2c2cccc(CCCN(C)C)c2)cnc1N` [Compound 1393, N-(6-amino-5-ethylpyridin-3-yl)-2-((2R,5S)-2-(3-(3-(dimethylamino)propyl)phenyl)-5-methylpiperidin-1-yl)-2-oxoacetamide], for which the IC50 in assay [1] (setting [7]) is 100 to 1000 nM; at PRMT5 [6] (setting [12]), below 50 nM; in assay [3] (setting [13]), below 1000 nM; in assay [4] (setting [9]), below 100 nM; on PRMT5 [5] (setting [11]), 50 to 500 nM. Besides, the “MTAP intact/deleted ratio” value in assay [4] (setting [10]) is “A (an IC50 ratio greater than or equal to 10 fold)”.
